Measurements from US8354441B2, “Oxazoline derivatives” (Hoffmann-La Roche Inc., priority 2009, dated 2013).

Columns and labels:
[1] = target: T1, mouse TAAR1 (Mus musculus, UniProt Q923Y8); test: TAAR1 radioligand binding with [3H]-rac-2-(1,2,3,4-tetrahydro-1-naphthyl)-2-imidazoline, membranes of stably transfected HEK293 cells; settings: first value of the cell, read-out: Ki (μM) mouse/rat: mouse
T1 construct: expressed in transfected cells; host or cells: HEK293 (ATCC # CRL-1573), stably transfected with pIRESneo2 expression plasmid
Description: (§1) For the construction of expression plasmids the coding sequences of human, rat and mouse TAAR 1 were amplified from genomic DNA essentially as described by Lindemann et al.. The Expand High Fidelity PCR System (Roche Diagnostics) was used with 1.5 mM Mg^2+ and purified PCR products were cloned into pCR2.1-TOPO cloning vector (Invitrogen) following the instructions of the manufacturer. PCR products were subcloned into the pIRESneo2 vector (BD Clontech, Palo Alto, Calif.), and expression vectors were sequence verified before introduction in cell lines.
(§2) HEK293 cells (ATCC # CRL-1573) were cultured essentially as described by Lindemann et al. (2005). For the generation of stably transfected cell lines HEK293 cells were transfected with the pIRESneo2 expression plasmids containing the TAAR coding sequences (described above) with Lipofectamine 2000 (Invitrogen) according to the instructions of the manufacturer, and 24 hrs post transfection the culture medium was supplemented with 1 mg/ml G418 (Sigma, Buchs, Switzerland). After a culture period of about 10 d clones were isolated, expanded and tested for responsiveness to trace amines (all compounds purchased from Sigma) with the cAMP Biotrak Enzyme immunoassay (EIA) System (Amersham) following the non-acetylation EIA procedure provided by the manufacturer.
(§3) Cells at confluence were rinsed with ice-cold phosphate buffered saline without Ca^2+ and Mg^2+ containing 10 mM EDTA and pelleted by centrifugation at 1000 rpm for 5 min at 4° C. The pellet was then washed twice with ice-cold phosphate buffered saline and the cell pellet was frozen immediately by immersion in liquid nitrogen and stored until use at −80° C. The cell pellet was then suspended in 20 ml HEPES-NaOH (20 mM), pH 7.4 containing 10 mM EDTA, and homogenized with a Polytron (PT 3000, Kinematica) at 10,000 rpm for 10 s. The homogenate was centrifuged at 48,000×g for 30 min at 4° C. and the pellet resuspended in 20 ml HEPES-NaOH (20 mM), pH 7.4 containing 0.1 mM EDTA (buffer A), and homogenized with a Polytron at 10,000 rpm for 10 s. The homogenate was then centrifuged at 48,000×g for 30 min at 4° C. and the pellet resuspended in 20 ml buffer A, and homogenized with a Polytron at 10,000 rpm for 10 s. Protein concentration was determined by the method of Pierce (Rockford, Ill.). The homogenate was then centrifuged at 48,000×g for 10 min at 4° C., resuspended in HEPES-NaOH (20 mM), pH 7.0 including MgCl2 (10 mM) and […] homogenized with a Polytron at 10,000 rpm for 10 s.
(§4) The binding assay was performed at 4° C. in a final volume of 1 ml, and with an incubation time of 30 min. The radioligand [^3H]-rac-2-(1,2,3,4-tetrahydro-1-naphthyl)-2-imidazoline was used at a concentration equal to the calculated Kd value of 60 nM to give a bound at around 0.1% of the total added radioligand concentration, and a specific binding which represented approximately 70-80% of the total binding. Non-specific binding was defined as the amount of [^3H]-rac-2-(1,2,3,4-tetrahydro-1-naphthyl)-2-imidazoline bound in the presence of the appropriate unlabelled ligand (10 μM). Competing ligands were tested in a wide range of concentrations (10 pM-30 μM). […] Each experiment was performed in duplicate. All incubations were terminated by rapid filtration through UniFilter-96 plates (Packard Instrument Company) and glass filter GF/C, pre-soaked for at least 2 h in polyethylenimine 0.3%, and using a Filtermate 96 Cell Harvester (Packard Instrument Company). The tubes and filters were then washed 3 times with 1 ml aliquots of cold buffer B. Filters were not dried and soaked in Ultima gold (45 μl/well, Packard Instrument Company) and bound radioactivity was counted by a TopCount Microplate Scintillation Counter (Packard Instrument Company).

[2] = target: T2, rat TAAR1 (Rattus norvegicus, UniProt Q923Y9); test: as above; settings: second value of the cell, read-out: Ki (μM) mouse/rat: rat
T2 construct: expressed in transfected cells; host or cells: HEK293 (ATCC # CRL-1573), stably transfected with pIRESneo2 expression plasmid
Description: as §1, §2, §3, §4

T2 sequence (Q923Y9 whole entry): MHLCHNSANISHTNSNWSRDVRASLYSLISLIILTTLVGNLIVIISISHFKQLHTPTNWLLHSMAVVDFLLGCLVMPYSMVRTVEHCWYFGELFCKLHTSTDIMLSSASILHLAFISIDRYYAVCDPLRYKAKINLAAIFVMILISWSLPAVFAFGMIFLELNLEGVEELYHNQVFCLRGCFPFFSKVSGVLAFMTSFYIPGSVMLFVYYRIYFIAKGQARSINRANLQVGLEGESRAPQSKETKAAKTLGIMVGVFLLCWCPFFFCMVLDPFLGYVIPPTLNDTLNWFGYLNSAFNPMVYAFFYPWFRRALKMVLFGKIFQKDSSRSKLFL
T1 sequence (Q923Y8 whole entry): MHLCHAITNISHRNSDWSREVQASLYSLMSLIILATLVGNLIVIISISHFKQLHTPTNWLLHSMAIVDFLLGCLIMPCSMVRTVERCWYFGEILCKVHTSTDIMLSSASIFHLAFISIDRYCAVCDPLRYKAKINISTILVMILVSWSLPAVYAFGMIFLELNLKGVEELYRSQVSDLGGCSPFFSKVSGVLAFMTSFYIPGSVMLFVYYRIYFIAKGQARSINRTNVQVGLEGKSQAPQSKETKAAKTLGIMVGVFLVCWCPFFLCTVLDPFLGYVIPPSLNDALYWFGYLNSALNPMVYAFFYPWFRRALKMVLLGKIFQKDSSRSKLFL

Row | Structure (SMILES) | Ki [1] | Ki [2]
1 | NC1=N[C@@H](CCCc2ccc(NC(=O)c3ccc(Cl)cc3)cc2)CO1 [Example 8, N-{4-[3-((S)-2-Amino-4,5-dihydro-oxazol-4-yl)-propyl]-phenyl}-4-chloro-benzamide] | 0.0034 µM | 0.0001 µM
2 | COc1ccc(C(=O)Nc2ccc(CC[C@H]3COC(N)=N3)cc2)cn1 [Example 97, N-{4-[2-((S)-2-Amino-4,5-dihydro-oxazol-4-yl)-ethyl]-phenyl}-6-methoxy-nicotinamide] | 0.0018 µM | 0.0015 µM
3 | NC1=N[C@@H](CCc2ccc(C(=O)Nc3ccc(Cl)cn3)cc2)CO1 [Example 131, (S)-4-(2-(2-Amino-4,5-dihydrooxazol-4-yl)ethyl)-N-(5-chloropyridin-2-yl)benzamide] | 0.004 µM | 0.0008 µM
4 | NC1=N[C@@H](CCc2ccc(N3CCN(c4ccc(F)cc4)C3=O)cc2)CO1 [Example 56, 1-{4-[2-((S)-2-Amino-4,5-dihydro-oxazol-4-yl)-ethyl]-phenyl}-3-(4-fluoro-phenyl)-imidazolidin-2-one] | 0.0094 µM | 0.0009 µM
5 | COC(C(=O)Nc1ccc(CC[C@H]2COC(N)=N2)cc1)c1ccc(Br)cc1 (stereo partly drawn) [Example 73, N-{4-[2-((S)-2-Amino-4,5-dihydro-oxazol-4-yl)-ethyl]-phenyl}-2-(4-bromo-phenyl)-2-methoxy-acetamide] | 0.0026 µM | 0.0049 µM
6 | N#Cc1ccc(C(=O)Nc2ccc(CC[C@H]3COC(N)=N3)cc2)cn1 [Example 111, N-{4-[2-((S)-2-Amino-4,5-dihydro-oxazol-4-yl)-ethyl]-phenyl}-6-cyano-nicotinamide] | 0.004 µM | 0.0057 µM
7 | NC1=N[C@@H](CCc2ccc(NC(=O)C3(C(F)(F)F)CC3)cc2)CO1 [Example 52, 1-Trifluoromethyl-cyclopropanecarboxylic acid {4-[2-((S)-2-amino-4,5-dihydro-oxazol-4-yl)-ethyl]-phenyl}-amide] | 0.0073 µM | 0.006 µM
8 | Cc1ocnc1C(=O)Nc1ccc(CC[C@H]2COC(N)=N2)cc1 [Example 191, (S)-N-(4-(2-(2-Amino-4,5-dihydrooxazol-4-yl)ethyl)phenyl)-5-methyloxazole-4-carboxamide] | 0.0042 µM | 0.0021 µM
9 | NC1=N[C@@H](CCc2ccc(NC(=O)c3ccc(C(F)(F)F)nc3)cc2)CO1 [Example 55, N-{4-[2-((S)-2-Amino-4,5-dihydro-oxazol-4-yl)-ethyl]-phenyl}-6-trifluoromethyl-nicotinamide] | 0.0025 µM | 0.003 µM
10 | NC1=N[C@@H](CCc2ccc(NC(=O)c3ncc(F)cc3F)cc2)CO1 [Example 87, 3,5-Difluoro-pyridine-2-carboxylic acid {4-[2-((S)-2-amino-4,5-dihydro-oxazol-4-yl)-ethyl]-phenyl}-amide] | 0.0057 µM | 0.0018 µM
11 | NC1=N[C@@H](CCc2ccc(NC(=O)c3ccc(Cl)nc3)cc2)CO1 [Example 31, N-{4-[2-((S)-2-Amino-4,5-dihydro-oxazol-4-yl)-ethyl]-phenyl}-6-chloro-nicotinamide] | 0.0025 µM | 0.0035 µM
12 | COc1ncccc1C(=O)Nc1ccc(CC[C@H]2COC(N)=N2)cc1 [Example 115, N-{4-[2-((S)-2-Amino-4,5-dihydro-oxazol-4-yl)-ethyl]-phenyl}-2-methoxy-nicotinamide] | 0.0029 µM | 0.0024 µM
13 | C#Cc1ccc(NC(=O)c2ccc(CC[C@H]3COC(N)=N3)cc2)nc1 [Example 152, (S)-4-(2-(2-Amino-4,5-dihydrooxazol-4-yl)ethyl)-N-(5-ethynylpyridine-2-yl)benzamide] | 0.008 µM | 0.0002 µM
14 | NC1=N[C@@H](CCc2ccc(N3Cc4ccc(Cl)cc4C3=O)cc2)CO1 [Example 186, 2-{4-[2-((S)-2-Amino-4,5-dihydro-oxazol-4-yl)-ethyl]-phenyl}-6-chloro-2,3-dihydro-isoindol-1-one] | 0.0029 µM | 0.001 µM
15 | NC1=N[C@@H](CCc2ccc(NC(=O)c3ccc(-n4cccn4)nc3)cc2)CO1 [Example 85, N-{4-[2-((S)-2-Amino-4,5-dihydro-oxazol-4-yl)-ethyl]-phenyl}-6-pyrazol-1-yl-nicotinamide] | 0.0012 µM | 0.0015 µM
16 | NC1=N[C@@H](CCc2ccc(NC(=O)c3cncc(Cl)c3)cc2)CO1 [Example 124, (S)-N-(4-(2-(2-Amino-4,5-dihydrooxazol-4-yl)ethyl)phenyl)-5-chloronicotinamide] | 0.004 µM | 0.0061 µM
17 | COc1ccc(C(=O)Nc2ccc(CC[C@H]3COC(N)=N3)cc2)nc1Cl [Example 168, (S)-N-(4-(2-(2-Amino-4,5-dihydrooxazol-4-yl)ethyl)phenyl)-6-chloro-5-methoxypicolinamide] | 0.0014 µM | 0.0009 µM
18 | NC1=N[C@@H](CCc2ccc(NC(=O)C3CCCC3)cc2)CO1 [Example 43, Cyclopentanecarboxylic acid {4-[2-((S)-2-amino-4,5-dihydro-oxazol-4-yl)-ethyl]-phenyl}-amide] | 0.0029 µM | 0.002 µM

Second part, the molecule after the results:

Row | Ki [1] | Ki [2] | Structure (SMILES)
19 | 0.001 µM | 0.0012 µM | CCOc1cnc(C(=O)Nc2ccc(CC[C@H]3COC(N)=N3)cc2)cn1 [Example 161, (S)-N-(4-(2-(2-Amino-4,5-dihydrooxazol-4-yl)ethyl)phenyl)-5-ethoxypyrazine-2-carboxamide]
20 | 0.0005 µM | 0.0002 µM | NC1=N[C@@H](CCc2ccc(NC(=O)c3ccc4ccccc4n3)cc2)CO1 [Example 91, Quinoline-2-carboxylic acid {4-[2-((S)-2-amino-4,5-dihydro-oxazol-4-yl)-ethyl]-phenyl}-amide]
21 | 0.0003 µM | 0.0003 µM | NC1=N[C@@H](CCc2ccc(NC(=O)Nc3ccc(F)cc3)cc2)CO1 [Example 94, 1-{4-[2-((S)-2-Amino-4,5-dihydro-oxazol-4-yl)-ethyl]-phenyl}-3-(4-fluoro-phenyl)-urea]
22 | 0.0008 µM | 0.0011 µM | Cc1ccc(C(=O)Nc2ccc(CC[C@H]3COC(N)=N3)cc2)nc1 [Example 171, (S)-N-(4-(2-(2-Amino-4,5-dihydrooxazol-4-yl)ethyl)phenyl)-5-methylpicolinamide]
23 | 0.0008 µM | 0.0003 µM | NC1=N[C@@H](CCc2ccc(NC(=O)c3ccc(F)cc3)cc2)CO1 [Example 16, N-{4-[2-((S)-2-Amino-4,5-dihydro-oxazol-4-yl)-ethyl]-phenyl}-4-fluoro-benzamide]
24 | 0.001 µM | 0.0006 µM | CCOc1ccc(C(=O)Nc2ccc(CC[C@H]3COC(N)=N3)cc2)cc1 [Example 60, N-{4-[2-((S)-2-Amino-4,5-dihydro-oxazol-4-yl)-ethyl]-phenyl}-4-ethoxy-benzamide]
25 | 0.0006 µM | 0.0063 µM | Cc1cc(Cl)cc(C(=O)Nc2ccc(CC[C@H]3COC(N)=N3)cc2)n1 [Example 156, (S)-N-(4-(2-(2-Amino-4,5-dihydrooxazol-4-yl)ethyl)phenyl)-4-chloro-6-methylpicolinamide]
26 | 0.0009 µM | 0.001 µM | CCOc1ccc(C(=O)Nc2ccc(CC[C@H]3COC(N)=N3)cc2)nc1 [Example 153, (S)-N-(4-(2-(2-Amino-4,5-dihydrooxazol-4-yl)ethyl)phenyl)-5-ethoxypicolinamide]
27 | 0.0012 µM | 0.0009 µM | NC1=N[C@@H](CCc2ccc(NC(=O)c3ccc(Br)nc3)cc2)CO1 [Example 106, N-{4-[2-((S)-2-Amino-4,5-dihydro-oxazol-4-yl)-ethyl]-phenyl}-6-bromo-nicotinamide]
